Measured values reported in PubChem BioAssay (NCI).
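Five concentrations, 48 hours, 96-well plates. The concentration for 50% growth inhibition is given as GI50. Definition used: TGI = concentration required for complete inhibition of growth.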

Assays:
Assay in all cases: DTP human tumour cell line panel, 48 h
LOX IMVI melanoma = tested on: LOX IMVI melanoma
IGROV1 ovarian = tested on: IGROV1 ovarian
MOLT-4 leukemia = tested on: MOLT-4 leukemia
CCRF-CEM leukemia = tested on: CCRF-CEM leukemia
SNB-19 CNS = tested on: SNB-19 CNS
HCC-2998 colon = tested on: HCC-2998 colon
HL-60(TB) leukemia = tested on: HL-60(TB) leukemia
OVCAR-4 ovarian = tested on: OVCAR-4 ovarian
PC-3 prostate = tested on: PC-3 prostate
MDA-MB-435 = tested on: MDA-MB-435

Row | Compound | TGI (LOX IMVI melanoma) [µM] | TGI (IGROV1 ovarian) [µM] | TGI (MOLT-4 leukemia) [µM] | TGI (CCRF-CEM leukemia) [µM] | TGI (SNB-19 CNS) [µM] | TGI (HCC-2998 colon) [µM] | TGI (HL-60(TB) leukemia) [µM] | TGI (OVCAR-4 ovarian) [µM] | GI50 (LOX IMVI melanoma) [µM] | GI50 (IGROV1 ovarian) [µM] | GI50 (PC-3 prostate) [µM] | TGI (PC-3 prostate) [µM] | GI50 (MOLT-4 leukemia) [µM] | GI50 (CCRF-CEM leukemia) [µM] | GI50 (SNB-19 CNS) [µM] | GI50 (HCC-2998 colon) [µM] | GI50 (OVCAR-4 ovarian) [µM] | GI50 (HL-60(TB) leukemia) [µM] | GI50 (MDA-MB-435) [µM] | TGI (MDA-MB-435) [µM]
1 | CN/N=C(/c1nc2ccc([N+](=O)[O-])cc2[nH]c1=O)C(O)c1ccc(C(O)/C(=N\NC)c2nc3ccc([N+](=O)[O-])cc3[nH]c2=O)cc1 (centres undefined) | > 100 | > 100 | > 100 | > 100 | > 100 | 95.1 | 53.5 |  |  |  |  |  |  |  |  |  |  |  |  | 
2 | CC1CC2(S(=O)(=O)c3ccccc3)ON1CC2S(=O)(=O)c1ccccc1 (centres undefined) | > 100 | > 100 | > 100 | > 100 | > 100 | > 100 | > 100 | > 100 |  |  |  |  |  |  |  |  |  |  |  | 
3 | Cn1cc(-c2cc(-c3cn(C)c4ccc(Cl)cc34)[nH]n2)c2cc(Cl)ccc21 | 3.8 | 6.37 | 11.8 | 23.8 | 20.1 | 3.84 | 18.1 | 28.4 | 1.7 | 2.55 | 3.05 | 14.2 | 1.55 | 6.4 | 4.09 | 1.71 | 5.82 | 4.45 |  | 
4 | CCCC1(CN2c3ccccc3Sc3ccc(Cl)cc32)CCN(CC)C1 (centres undefined) | 3.37 | 3.69 | > 100 | > 100 | 3.78 | 3.27 |  | 3.39 | 1.67 | 1.92 | 1.68 | 3.38 | 3.27 | 3.49 | 2 | 1.68 | 1.75 |  | 1.79 | 3.47
5 | O=C(NN1C(=O)CSC1c1cccc(Cl)c1)C(O)c1ccccc1 (centres undefined) | > 100 | > 100 | > 100 | > 100 | > 100 |  |  | > 100 | > 100 | > 100 | 60.6 | > 100 | 77.8 | > 100 | > 100 |  | 66.7 |  | > 100 | > 100
6 | COc1cc2c(c3c1c(=O)c1ccccc1n3C)C=CC(C)(C)O2 | > 100 | > 100 | > 100 | > 100 | > 100 |  | > 100 | > 100 |  |  |  |  |  |  |  |  |  |  |  | 
7 | CCOc1cccc2c1N[S@@](=O)S2 | > 100 | > 100 | > 100 | > 100 | > 100 |  | > 100 |  |  |  |  |  |  |  |  |  |  |  |  | 
8 | CCOc1ccc(N=C2NC(=O)C(CC(=O)Nc3ccccc3[N+](=O)[O-])S2)cc1 (centres undefined) | > 100 | > 100 | > 100 | > 100 | > 100 | > 100 | > 100 | > 100 |  |  |  |  |  |  |  |  |  |  |  | 
9 | COc1ccc(/C=C(\NC(=O)c2ccccc2)c2nc3ccccc3[nH]2)cc1OC | > 100 | > 100 | > 100 | > 100 | > 100 | > 100 | > 100 | > 100 |  |  |  |  |  |  |  |  |  |  |  | 
10 | C1=Cc2nc1c(-c1ccccc1)c1ccc([nH]1)c(-c1ccccc1)c1nc(c(-c3ccccc3)c3ccc([nH]3)c2-c2ccccc2)C=C1 | > 100 | > 100 | > 100 | > 100 | > 100 | > 100 | > 100 | > 100 |  |  |  |  |  |  |  |  |  |  |  | 
